The target in the experiment is human APJ receptor (Homo sapiens (Human), UniProt P35414). Description: Intracellular cAMP accumulation assay (APJ hcAMP, HTRF). To be noted: human APJ, intracellular cAMP accumulation; read-out: Human APJ cAMP EC50 Potency range. Format: cell-based. In short, it runs like this: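 HEK293 cells stably expressing human APJ, 5,000 per well, incubated 30 min at rt with compound, […] and 2 μM forskolin. cAMP measured by HTRF against a cAMP standard curve as inhibition of forskolin-driven production. EC50 from variable-slope sigmoidal fit.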
Chain of human APJ receptor (P35414 whole entry): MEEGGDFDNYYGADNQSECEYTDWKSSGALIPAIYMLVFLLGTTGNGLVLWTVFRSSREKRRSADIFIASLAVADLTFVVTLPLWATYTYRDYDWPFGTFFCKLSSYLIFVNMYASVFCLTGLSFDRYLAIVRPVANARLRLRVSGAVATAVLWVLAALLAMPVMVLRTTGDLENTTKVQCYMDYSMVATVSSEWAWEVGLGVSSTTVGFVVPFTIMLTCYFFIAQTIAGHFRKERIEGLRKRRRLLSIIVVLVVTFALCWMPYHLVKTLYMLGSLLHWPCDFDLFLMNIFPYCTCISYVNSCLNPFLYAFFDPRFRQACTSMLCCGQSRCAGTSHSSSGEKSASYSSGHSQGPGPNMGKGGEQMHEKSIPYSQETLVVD
Background: cAMP levels reflect the balance of adenylyl cyclase and phosphodiesterase activity.
Regarding `CCCCc1nc(=O)c(S(=O)(=O)c2ccc(C)cc2)c(O)n1[C@H](C)c1ccccc1` [Example 130, 2-butyl-6-hydroxy-5-(4-methylbenzenesulfonyl)-1-[(1R)-1-phenylethyl]-1,4-dihydropyrimidin-4-one], the EC50 (in general, the concentration that produces a half-maximal response) was 10 to 100 nM.
Consider `CCCCc1nc(=O)c(S(=O)(=O)c2ccc(-c3cncc(F)c3)cc2)c(O)n1[C@H](C)c1ccccc1` [Example 131, 2-butyl-5-[4-(5-fluoropyridin-3-yl)benzenesulfonyl]-6-hydroxy-1-[(1R)-1-phenylethyl]-1,4-dihydropyrimidin-4-one], for which the EC50 is 10 to 100 nM.
To `CCCCc1nc(=O)c(S(=O)(=O)c2ccc(-c3cncc(F)c3)cc2)c(O)n1[C@@H](COC)c1ccccc1` [Example 132, 2-butyl-5-[4-(5-fluoropyridin-3-yl)benzenesulfonyl]-6-hydroxy-1-[(1R)-2-methoxy-1-phenylethyl]-1,4-dihydropyrimidin-4-one] belongs 0.01 to 10 nM.
For the compound `CCCCc1nc(=O)c(S(=O)(=O)c2ccc(-c3ccc(F)nc3)cc2)c(O)n1[C@@H](COC)c1ccccc1` [Example 133, 2-butyl-5-[4-(6-fluoropyridin-3-yl)benzenesulfonyl]-6-hydroxy-1-[(1R)-2-methoxy-1-phenylethyl]-1,4-dihydropyrimidin-4-one], the EC50 is 0.01 to 10 nM.
The value for `CCCCc1nc(=O)c(S(=O)(=O)c2ccc(-c3ccncc3C)cc2)c(O)n1[C@@H](COC)c1ccccc1` [Example 134, 2-butyl-6-hydroxy-1-[(1R)-2-methoxy-1-phenylethyl]-5-[4-(3-methylpyridin-4-yl)benzenesulfonyl]-1,4-dihydropyrimidin-4-one] was 0.01 to 10 nM; that for `CCCCc1nc(=O)c(S(=O)(=O)c2ccc(-c3ccc(F)nc3)cc2)c(O)n1[C@@H](C)c1ccccc1` [Example 135, 2-butyl-5-[4-(6-fluoropyridin-3-yl)benzenesulfonyl]-6-hydroxy-1-[(1S)-1-phenylethyl]-1,4-dihydropyrimidin-4-one] was 0.01 to 10 nM.
On to `CCCCc1nc(=O)c(S(=O)(=O)c2ccc(-c3ccc(F)nc3)cc2)c(O)n1[C@H](C)c1ccccc1` [Example 136, 2-butyl-5-[4-(6-fluoropyridin-3-yl)benzenesulfonyl]-6-hydroxy-1-[(1R)-1-phenylethyl]-1,4-dihydropyrimidin-4-one], for which the EC50 lay in the range of 0.01 to 10 nM.
To `CCCCc1nc(=O)c(S(=O)(=O)c2ccc(C)cc2)c(O)n1[C@@H](COC)c1ccccc1` [Example 137, 2-butyl-6-hydroxy-1-[(1R)-2-methoxy-1-phenylethyl]-5-(4-methylbenzenesulfonyl)-1,4-dihydropyrimidin-4-one] belongs 0.01 to 10 nM.
As for `CCCCc1nc(=O)c(S(=O)(=O)c2ccc(-c3ccncc3C)cc2)c(O)n1[C@@H](C)c1ccccc1` [Example 138, 2-butyl-6-hydroxy-5-[4-(3-methylpyridin-4-yl)benzenesulfonyl]-1-[(1S)-1-phenylethyl]-1,4-dihydropyrimidin-4-one], the EC50 is 0.01 to 10 nM.
The value for `CCCCc1nc(=O)c(S(=O)(=O)c2ccc(-c3ccncc3C)cc2)c(O)n1[C@H](C)c1ccccc1` [Example 139, 2-butyl-6-hydroxy-5-[4-(3-methylpyridin-4-yl)benzenesulfonyl]-1-[(1R)-1-phenylethyl]-1,4-dihydropyrimidin-4-one] was 0.01 to 10 nM; that for `CCCCc1nc(=O)c(S(=O)(=O)c2ccc(-c3cncc(F)c3)cc2)c(O)n1[C@@H](C)c1cccc(C#N)c1` [Example 140, 3-[(1S)-1-{2-butyl-5-[4-(5-fluoropyridin-3-yl)benzenesulfonyl]-6-hydroxy-4-oxo-1,4-dihydropyrimidin-1-yl}ethyl]benzonitrile] was 0.01 to 10 nM.
The value for `CCCCc1nc(=O)c(S(=O)(=O)c2ccc(-c3ccc(F)nc3)cc2)c(O)n1[C@@H](C)c1cccc(C#N)c1` [Example 141, 3-[(1S)-1-{2-butyl-5-[4-(6-fluoropyridin-3-yl)benzenesulfonyl]-6-hydroxy-4-oxo-1,4-dihydropyrimidin-1-yl}ethyl]benzonitrile] was 0.01 to 10 nM.
The value for `CCCCc1nc(=O)c(S(=O)(=O)c2ccc(-c3ccncc3C)cc2)c(O)n1[C@@H](C)c1cccc(C#N)c1` [Example 142, 3-[(1S)-1-{2-butyl-6-hydroxy-5-[4-(3-methylpyridin-4-yl)benzenesulfonyl]-4-oxo-1,4-dihydropyrimidin-1-yl}ethyl]benzonitrile] was 0.01 to 10 nM; that for `CCCCc1nc(=O)c(S(=O)(=O)c2ccc(-c3ccncc3C)cc2)c(O)n1[C@H](CC)c1ccccc1` [Example 143, 2-butyl-6-hydroxy-5-[4-(3-methylpyridin-4-yl)benzenesulfonyl]-1-[(1R)-1-phenylpropyl]-1,4-dihydropyrimidin-4-one] was 0.01 to 10 nM; that for `CCCCc1nc(=O)c(S(=O)(=O)c2ccc(-c3ccncc3C)cc2)c(O)n1[C@@H](CC)c1cccc(OC)c1` [Example 144, 2-butyl-6-hydroxy-1-[(1S)-1-(3-methoxyphenyl)propyl]-5-[4-(3-methylpyridin-4-yl)benzenesulfonyl]-1,4-dihydropyrimidin-4-one] was 0.01 to 10 nM.
With `CCCCc1nc(=O)c(S(=O)(=O)c2ccc(-c3cncc(F)c3)cc2)c(O)n1[C@@H](CC)c1cccc(OC)c1` [Example 145, 2-butyl-5-[4-(5-fluoropyridin-3-yl)benzenesulfonyl]-6-hydroxy-1-[(1S)-1-(3-methoxyphenyl)propyl]-1,4-dihydropyrimidin-4-one], the EC50 was 0.01 to 10 nM.
The value for `CCCCc1nc(=O)c(S(=O)(=O)c2ccc(-c3ccc(F)nc3)cc2)c(O)n1[C@@H](CC)c1cccc(OC)c1` [Example 146, 2-butyl-5-[4-(6-fluoropyridin-3-yl)benzenesulfonyl]-6-hydroxy-1-[(1S)-1-(3-methoxyphenyl)propyl]-1,4-dihydropyrimidin-4-one] was 0.01 to 10 nM; that for `CCCCc1nc(=O)c(S(=O)(=O)c2ccc(-c3ccc(OC)nc3C)cc2)c(O)n1[C@@H](COC)c1ccccc1` [Example 147, 2-butyl-6-hydroxy-1-[(1R)-2-methoxy-1-phenylethyl]-5-[4-(6-methoxy-2-methylpyridin-3-yl)benzenesulfonyl]-1,4-dihydropyrimidin-4-one] was 0.01 to 10 nM; that for `CCCCc1nc(=O)c(S(=O)(=O)c2ccc(-c3ccnc(F)c3C)cc2)c(O)n1[C@@H](COC)c1ccccc1` [Example 148, 2-butyl-5-[4-(2-fluoro-3-methylpyridin-4-yl)benzenesulfonyl]-6-hydroxy-1-[(1R)-2-methoxy-1-phenylethyl]-1,4-dihydropyrimidin-4-one] was 0.01 to 10 nM.
The value for `CCCCc1nc(=O)c(S(=O)(=O)c2ccc(-c3cccnc3C)cc2)c(O)n1[C@@H](COC)c1ccccc1` [Example 149, 2-butyl-6-hydroxy-1-[(1R)-2-methoxy-1-phenylethyl]-5-[4-(2-methylpyridin-3-yl)benzenesulfonyl]-1,4-dihydropyrimidin-4-one] was 0.01 to 10 nM; that for `CCCCc1nc(=O)c(S(=O)(=O)c2ccc(-c3ccc(F)nc3C)cc2)c(O)n1[C@@H](COC)c1ccccc1` [Example 150, 2-butyl-5-[4-(6-fluoro-2-methylpyridin-3-yl)benzenesulfonyl]-6-hydroxy-1-[(1R)-2-methoxy-1-phenylethyl]-1,4-dihydropyrimidin-4-one] was 0.01 to 10 nM; that for `CCCCc1nc(=O)c(S(=O)(=O)c2ccc(-c3cncc(C)c3)cc2)c(O)n1[C@@H](COC)c1ccccc1` [Example 151, 2-butyl-6-hydroxy-1-[(1R)-2-methoxy-1-phenylethyl]-5-[4-(5-methylpyridin-3-yl)benzenesulfonyl]-1,4-dihydropyrimidin-4-one] was 0.01 to 10 nM.
To `CCCCc1nc(=O)c(S(=O)(=O)c2ccc(-c3cnc(F)cc3C)cc2)c(O)n1[C@@H](COC)c1ccccc1` [Example 152, 2-butyl-5-[4-(6-fluoro-4-methylpyridin-3-yl)benzenesulfonyl]-6-hydroxy-1-[(1R)-2-methoxy-1-phenylethyl]-1,4-dihydropyrimidin-4-one] belongs 0.01 to 10 nM; to `CCCCc1nc(=O)c(S(=O)(=O)c2ccc(-c3ccnc(C)c3)cc2)c(O)n1[C@@H](COC)c1ccccc1` [Example 153, 2-butyl-6-hydroxy-1-[(1R)-2-methoxy-1-phenylethyl]-5-[4-(2-methylpyridin-4-yl)benzenesulfonyl]-1,4-dihydropyrimidin-4-one], 0.01 to 10 nM; to `CCCCc1nc(=O)c(S(=O)(=O)c2ccc(-c3cc(C)nc(C)c3)cc2)c(O)n1[C@@H](COC)c1ccccc1` [Example 154, 2-butyl-5-[4-(2,6-dimethylpyridin-4-yl)benzenesulfonyl]-6-hydroxy-1-[(1R)-2-methoxy-1-phenylethyl]-1,4-dihydropyrimidin-4-one], 10 to 100 nM.
For the compound `CCCCc1nc(=O)c(S(=O)(=O)c2ccc(-c3ccncc3C)cc2)c(O)n1[C@H]1CCc2ccccc21` [Example 155, 2-butyl-1-[(1S)-2,3-dihydro-1H-inden-1-yl]-6-hydroxy-5-[4-(3-methylpyridin-4-yl)benzenesulfonyl]-1,4-dihydropyrimidin-4-one], the EC50 is 0.01 to 10 nM.
`CCCCc1nc(=O)c(S(=O)(=O)c2ccc(-c3ccnc(C)c3)cc2)c(O)n1[C@H]1CCc2ccccc21` [Example 156, 2-butyl-1-[(1S)-2,3-dihydro-1H-inden-1-yl]-6-hydroxy-5-[4-(2-methylpyridin-4-yl)benzenesulfonyl]-1,4-dihydropyrimidin-4-one]: the concentration giving a half-maximal response (EC50) fell in the range of 100 to 300 nM.
To `CCCCc1nc(=O)c(S(=O)(=O)c2ccc(-c3cccnc3C)cc2)c(O)n1[C@H]1CCc2ccccc21` [Example 157, 2-butyl-1-[(1S)-2,3-dihydro-1H-inden-1-yl]-6-hydroxy-5-[4-(2-methylpyridin-3-yl)benzenesulfonyl]-1,4-dihydropyrimidin-4-one] belongs 0.01 to 10 nM; to `CCCCc1nc(=O)c(S(=O)(=O)c2ccc(-c3ccncc3C)cc2)c(O)n1[C@H](C)c1cccc(C#N)c1` [Example 158, 3-[(1R)-1-{2-butyl-6-hydroxy-5-[4-(3-methylpyridin-4-yl)benzenesulfonyl]-4-oxo-1,4-dihydropyrimidin-1-yl}ethyl]benzonitrile], 0.01 to 10 nM.

Values taken from patent US10508104B2, “6-hydroxy-5-(phenyl/heteroarylsulfonyl)pyrimidin-4(1H)-one as APJ agonists” (Bristol-Myers Squibb Company, priority 2016, dated 2019).
